Laboratory results reported in US20240327433A1, “PYRIMIDOPYRAN COMPOUND” (Medshine Discovery Inc., priority 2021, published 2024).
Where a name gives a salt, the structure may show the parent alone.

How the values were obtained:
[1] = Pharmacokinetic study of oral and intravenously injected compounds in CD-1 mouse; assay type: in vivo
Procedure: To assay the pharmacokinetics of oral and intravenously injected compounds in CD-1 mouse. The assay compound was mixed with 5% DMSO+95% (10% HP-β-CD) aqueous solution. The mixture was vortexed and sonicated to prepare a clear solution of 0.5 mg/mL (intravenous) or a clear solution of 3 mg/mL (oral). The clear solution was filtered by a microporous membrane for use. […] Whole blood was collected for a certain period of time, and prepared to obtain plasma. Drug concentration was analyzed by LC-MS/MS method, and pharmacokinetic parameters were calculated by Phoenix WinNonlin software (Pharsight, USA).

p-ERK in GP2D cells = assay: Assay of p-ERK inhibition in GP2D cells (HTRF); assay type: cell-based; details: 1 hour incubation
Procedure: The cell plate was inoculated in a carbon dioxide incubator at 37° C. overnight; • 2) 2 μL of the compound was weighed and added to 78 μL of the cell medium. After the mixture was mixed thoroughly, 20 μL of the solution of compound was weighed and added to the corresponding well of the cell plate. The cell plate was placed back to the carbon dioxide incubator and incubated for another 1 hour; • 3) After completion of the incubation, the cell supernatant was discarded. 50 μL of 1× cell lysate was added to each well. The mixture was incubated with shaking at room temperature for 30 minutes; • 4) Phospho-ERK1/2 Eu Cryptate antibody and Phospho-ERK1/2 d2 antibody were diluted 20-fold with detection buffer; • 5) 16 μL of cell lysate supernatant was weighed and added into each well of a new 384 white microwell plate, and then 2 μL of the diluted solution of Phospho-ERK1/2 Eu Cryptate antibody and 2 μL of the diluted solution of Phospho-ERK1/2 d2 antibody dilution were added. The mixture was incubated at room temperature for at least 4 hours; • 6) After completion of the incubation, HTRF was read with multi-label analyzer: excitation: 320 nm, emission: 615 nm, 665 nm; • 7). IC50 of the compounds to be assayed was calculated.

KRAS^G12D AsPC-1 = assay: Anti-cell proliferation effect in tumor cell line AsPC-1 (CellTiter-Glo 3D); assay type: cell-based; details: Homo sapiens, ASPC1, AsPC-1, 120 hours
Procedure: (§1) In this assay, the effect of the compounds on inhibiting cell proliferation was studied by detecting the effect of the compounds on the cell activity in vitro in the tumor cell lines AsPC-1 and GP2D.
(§2) The tumor cell lines were cultured in a 37° C., 5% CO2 incubator according to the culture conditions indicated in the culture method. Cells were passaged regularly, and cells in logarithmic growth phase were used for plating.
(§3) Cells were stained with trypan blue and viable cells were counted.
(§4) The cell concentration was adjusted to an appropriate concentration.
(§5) To each well of a ULA culture plate was added 135 μL of cell suspension. To the blank control well was added the same volume of culture medium without cells.
(§6) After plating, the ULA culture plate was immediately centrifuged at room temperature at 1000 rpm for 10 minutes. Note: After completion of the centrifugation, subsequent operations must be processed carefully to avoid unnecessary shocks.
(§7) The culture plate was incubated in a 37° C., 5% CO2, 100% relative humidity incubator overnight.
(§8) 10× compound working solution (10× working solution in DMSO) was formulated, and then to the ULA culture plate was add 15 μL of 10× compound working solution, and to the vehicle control and blank control was added 15 μL of DMSO-cell culture medium mixture, respectively. […]
(§9) The luminescent signal was detected on a 2104 EnVision plate reader. […]

KRAS^G12D GP2D = assay: Anti-cell proliferation effect in tumor cell line GP2D (CellTiter-Glo 3D); assay type: cell-based; details: 120 hours
Procedure: as §1, §2, §3, §4, §5, §6, §7, §8, §9

KRAS^G12D = KRAS^G12D (Homo sapiens (Human), UniProt P01116, G12D); assay: Assay of activity of inhibiting KRAS^G12D (TR-FRET, SOS/GTP nucleotide exchange); assay type: biochemical
Procedure: 20 mL of 1000 mM HEPES, 20 mL of 500 mM EDTA, 10 mL of 5 M sodium chloride, 0.1 mL of 100% Tween 20, and 949.9 mL of water were weighed and formulated to 1 L of solution. The solution was sterilized by filtration and stored at 4° C.
20 mL of 1000 mM HEPES, 10 mL of 1000 mM magnesium chloride, 30 mL of 5 M sodium chloride, 0.05 mL of 100% Tween 20, and 939.95 mL of water were weighed and formulated to 1 L of solution. The solution was sterilized by filtration and stored at 4° C.
9.5 μL of 95 μM KRAS^G12D protein and 440.5 μL of KRAS nucleotide exchange buffer were weighed and mixed. The mixture was incubated at room temperature for 1 hour, and then formulated to […] of solution together with 8.4 μL of 17.9 μM Tb-SA, 1.8 μL of 5 mM Bodipy GDP and 9539.8 μL of KRAS assay buffer. After mixing, the solution was left to stand at room temperature for 6 hours, and stored at −80° C. • b. Assay reagents:
73.3 μL of KRAS/Bodipy GDP/Tb-SA mixture and 2126.7 μL of KRAS assay buffer were weighed and formulated to 2200 μL of solution.
1.59 μL of 166 μM SOS protein, 198 μL of 100 mM GTP and 2000.41 μL of KRAS assay buffer were weighed and formulated to 2200 μL of solution.
• 1) The concentration of a stock solution of the control compound was 1 mM, and the concentration of a stock solution of compounds to be assayed was 10 mM. […]

[2] = male, CD-1, plasma, intravenous (IV), about 2 mg/kg
[3] = male, CD-1, plasma, oral (PO), about 30 mg/kg

Sequence of KRAS^G12D (P01116-2 other isoform, or with tags, fused parts or gaps G12D): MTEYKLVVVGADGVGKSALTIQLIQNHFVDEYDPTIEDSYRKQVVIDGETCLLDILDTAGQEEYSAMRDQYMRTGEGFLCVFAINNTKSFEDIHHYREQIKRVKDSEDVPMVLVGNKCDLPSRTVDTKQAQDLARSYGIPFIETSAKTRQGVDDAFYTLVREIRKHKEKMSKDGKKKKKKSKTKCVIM

`Nc1ccc(C(F)(F)F)c([C@H]2Cc3nc(OC[C@@]45CCCN4C[C@H](F)C5)nc(N4CC5CCC(C4)N5)c3CO2)c1F` (single isomer, unassigned) [Compound 20B] showed an AUC(0-t) [1, 2] of 0.371 µM·h, a C0 [1, 2] of 449 nM and a Vd [1, 2] of 97.2 L/kg. The clearance [1, 2] was 138 mL/min/kg, the half-life [1, 2] was 11.2 h and the AUC(0-inf) [1, 3] was 4.71 µM·h. For the same molecule, the Cmax [1, 3] was 2100 nM, the half-life [1, 3] was 14.4 h and the F ([1]; oral (PO), about 30 mg/kg, oral bioavailability) was 85%. For the same molecule, the IC50 (p-ERK in GP2D cells) was 1.3 nM.

In the case of `Cc1cc(N)c(F)c(C2Cc3nc(OC[C@@]45CCCN4C[C@H](F)C5)nc(N4CC5CC(C4)N5)c3CO2)c1C(F)(F)F` (stereo partly shown) [Compound 2 hydrochloride], the IC50 (KRAS^G12D AsPC-1) is reported as 1860 nM and the IC50 (KRAS^G12D GP2D) is reported as 332 nM.

`Cc1cc(N)c(F)c(C2Cc3nc(OC[C@@]45CCCN4C[C@H](F)C5)nc(N4CC5C=CC(C4)N5)c3CO2)c1C(F)(F)F` (stereo partly shown) [Compound 7 hydrochloride] gave an IC50 (KRAS^G12D) of 0.1 nM and an IC50 (p-ERK in GP2D cells) of 1.1 nM.

With `Oc1cc(C2Cc3nc(OC[C@@]45CCCN4C[C@H](F)C5)nc(N4CC5CCC(C4)N5)c3CO2)c2ccccc2c1` (stereo partly shown) [Compound 8 hydrochloride] the IC50 (KRAS^G12D) was 78.3 nM and the IC50 (p-ERK in GP2D cells) was 78 nM.

`Cc1cc(N)c(F)c(C2Cc3nc(OC[C@@]45CCCN4C[C@H](F)C5)nc(N4CC5CCC(C4)N5)c3CO2)c1C(F)(F)C(F)(F)F` (stereo partly shown) [Compound 12 formate] showed an IC50 (p-ERK in GP2D cells) of 20.9 nM.

Work on `Cc1cc(N)c(F)c(C2Cc3nc(OC[C@@]45CCCN4C[C@H](F)C5)nc(N4CC5CCC(C4)N5)c3CO2)c1Cl` (stereo partly shown) [Compound 14 hydrochloride] yielded an IC50 (p-ERK in GP2D cells) of 5.2 nM.

Work on `Cc1cc(N)c(F)c(C2Cc3nc(OC[C@@]45CCCN4C[C@H](F)C5)nc(N4CC5CCC(C4)N5)c3CO2)c1Br` (stereo partly shown) [Compound 15 hydrochloride] yielded an IC50 (p-ERK in GP2D cells) of 8.4 nM.

In the case of `Cc1cc(N)c(F)c(C2Cc3nc(OC[C@@]45CCCN4C[C@H](F)C5)nc(N4CC5CCC(C4)N5)c3CO2)c1I` (stereo partly shown) [Compound 16 hydrochloride], the IC50 (p-ERK in GP2D cells) is reported as 2.9 nM.

Molecule `C#Cc1c(C)cc(N)c(F)c1C1Cc2nc(OC[C@@]34CCCN3C[C@H](F)C4)nc(N3CC4CCC(C3)N4)c2CO1` (stereo partly shown) [Compound 17] has an IC50 (p-ERK in GP2D cells) of 27.1 nM.

Work on `Cc1cc(N)c(F)c(C2Cc3nc(OC[C@@]45CCCN4C[C@H](F)C5)nc(N4CC5CCC(C4)N5)c3CO2)c1C#N` (stereo partly shown) [Compound 18] yielded an IC50 (p-ERK in GP2D cells) of 66.4 nM.

In the case of `C=Cc1c(C)cc(N)c(F)c1C1Cc2nc(OC[C@@]34CCCN3C[C@H](F)C4)nc(N3CC4CCC(C3)N4)c2CO1` (stereo partly shown) [Compound 19 hydrochloride], the IC50 (p-ERK in GP2D cells) is reported as 17.5 nM.

`Nc1cc(Cl)c(Br)c(C2Cc3nc(OC[C@@]45CCCN4C[C@H](F)C5)nc(N4CC5CCC(C4)N5)c3CO2)c1F` (stereo partly shown) [Compound 21 hydrochloride] showed an IC50 (p-ERK in GP2D cells) of 2.6 nM.

Molecule `Nc1cc(F)c(C(F)(F)F)c(C2Cc3nc(OC[C@@]45CCCN4C[C@H](F)C5)nc(N4CC5CCC(C4)N5)c3CO2)c1F` (stereo partly shown) [Compound 22 hydrochloride] has an IC50 (p-ERK in GP2D cells) of 2.7 nM.

Molecule `Cc1cc(N)nc(C2Cc3nc(OC[C@@]45CCCN4C[C@H](F)C5)nc(N4CC5CCC(C4)N5)c3CO2)c1C(F)(F)F` (stereo partly shown) [Compound 23 formate] has an IC50 (p-ERK in GP2D cells) of 23.4 nM.

Molecule `Cc1cc(N)c(F)c(C2Cc3nc(OC[C@@]45CCCN4C[C@H](F)C5)nc(N4CC5CCC(C4)N5)c3CO2)c1C` (stereo partly shown) [Compound 25 hydrochloride] has an IC50 (p-ERK in GP2D cells) of 96.4 nM.

`Cc1cc(N)c(F)c(C2Cc3nc(OC[C@@]45CCCN4C[C@H](F)C5)nc(N4CC5CCC(C4)N5)c3CO2)c1C1CC1` (stereo partly shown) [Compound 27 hydrochloride] showed an IC50 (p-ERK in GP2D cells) of 118 nM.
